In patent US20240067693A1, “POLYPEPTIDES AND USES THEREOF” (MEDIMMUNE LIMITED, priority 2020, published 2024):
Numbered stars: 1 amine (or outer) side, 2 acyl side, 3 side chain; on linkers, the order of the positions; unused ones are H or OH. Bridge positions count the residues as written; N and C are the ends. Square brackets hold non-standard residues; d marks the D form. Side chains are listed from the residue outwards. Peptide text beside a SMILES is read from it. * marks the point of attachment. C18 diacid = O=C(O)CCCCCCCCCCCCCCCCC(=O)*; γGlu = O=C(O)[C@H](CCC(=O)[*:2])N[*:1]; AEEA = NCCOCCOCC(=O)O; Aib = CC(C)(N)C(=O)O

Assays:
[1] = target: T1, human calcitonin receptor (hCTR) (Homo sapiens, UniProt P30988); assay: cAMP production in 1321N1 cells with stable recombinant expression of human calcitonin receptor (hCTR); type: cell-based; conditions: cAMP, 1321N1 cells, assay buffer with 0.1% BSA; read-out: EC50 (pM) hCTR
T1 construct: expressed in transfected cells
T1 sequence (P30988 25-474): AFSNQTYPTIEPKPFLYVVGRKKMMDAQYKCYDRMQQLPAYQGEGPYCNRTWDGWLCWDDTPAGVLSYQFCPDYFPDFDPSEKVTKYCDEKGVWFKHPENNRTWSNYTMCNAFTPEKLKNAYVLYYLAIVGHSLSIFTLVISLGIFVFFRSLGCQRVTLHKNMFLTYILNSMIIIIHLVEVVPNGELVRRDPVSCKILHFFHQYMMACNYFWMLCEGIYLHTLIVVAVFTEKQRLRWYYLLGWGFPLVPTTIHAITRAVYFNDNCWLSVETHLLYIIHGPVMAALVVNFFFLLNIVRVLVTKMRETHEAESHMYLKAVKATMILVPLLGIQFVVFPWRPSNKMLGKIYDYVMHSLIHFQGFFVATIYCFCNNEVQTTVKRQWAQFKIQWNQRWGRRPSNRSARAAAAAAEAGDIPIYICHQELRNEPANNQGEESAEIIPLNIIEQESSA
Summary of the method: (§1)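 Receptor-expressing cells (human receptors in 1321N1, rat receptors in HEK) incubated 30 min at room temperature with peptide in HBSS/HEPES pH 7.4, 0.1% BSA, 0.5 mM IBMX. cAMP read by HTRF; EC50 from 4-parameter fit as % of maximal amylin or calcitonin response.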

[2] = target: T2, human amylin receptor (calcitonin receptor co-expressed with receptor activity modifying protein, RAMP3) (hAMYR3) (Homo sapiens, UniProt O60896+P30988); assay: cAMP production in 1321N1 cells with stable recombinant expression of human amylin receptor (hAMYR3); type: cell-based; conditions: for Ratio (selectivity hAMYR vs hCTR, ratio of EC50 values at the two receptors): EC50 hCTR / EC50 hAMYR3; for EC50: cAMP, 1321N1 cells, assay buffer with 0.1% BSA, read-out: EC50 (pM) hAMYR3
T2 construct: expressed in transfected cells
T2 sequence (P30988 25-474): T1 sequence (P30988 25-474)
T2 sequence (O60896 24-148 partner): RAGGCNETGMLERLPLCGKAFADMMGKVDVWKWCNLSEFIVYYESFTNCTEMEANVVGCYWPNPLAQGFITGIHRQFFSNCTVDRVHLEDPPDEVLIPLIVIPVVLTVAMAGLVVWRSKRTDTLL
Summary of the method: as §1

EC50 [1]	Ratio (selectivity hAMYR vs hCTR, ratio of EC50 values at the two receptors) [2]	EC50 [2]	Compound
1540 pM	2.7	574 pM	CC[C@H](C)[C@H](NC(=O)[C@@H]1CCCN1C(=O)CNC(=O)[C@H](Cc1ccccc1)NC(=O)[C@H](CC(N)=O)NC(=O)CNC(=O)[C@H](CO)NC(=O)[C@H](CO)NC(=O)[C@H](Cc1c[nH]cn1)NC(=O)C(C)(C)NC(=O)[C@H](CC(C)C)NC(=O)[C@H](Cc1ccccc1)NC(=O)[C@H](CC(N)=O)NC(=O)[C@H](C)NC(=O)[C@H](CC(C)C)NC(=O)[C@H](CCCNC(=N)N)NC(=O)[C@H](CCC(N)=O)NC(=O)[C@@H](NC(=O)[C@H](C)NC(=O)[C@@H]1CSSC[C@H](NC(=O)[C@H](CCCCN)NC(=O)[C@@H](N)CCCCNC(=O)CC[C@H](NC(=O)CCCCCCCCCCCCCCCCC(=O)O)C(=O)O)C(=O)N[C@@H](CC(N)=O)C(=O)N[C@@H]([C@@H](C)O)C(=O)N[C@@H](C)C(=O)N[C@@H]([C@@H](C)O)C(=O)N1)[C@@H](C)O)C(=O)N[C@@H](CC(C)C)C(=O)N1CCC[C@H]1C(=O)N1CCC[C@H]1C(=O)N[C@H](C(=O)N[C@@H](CC(N)=O)C(=O)N[C@H](C(=O)NCC(=O)N[C@@H](CO)C(=O)N[C@@H](CC(N)=O)C(=O)N[C@H](C(=O)N[C@@H](Cc1ccc(O)cc1)C(N)=O)[C@@H](C)O)C(C)C)[C@@H](C)O [Peptide 154] (H-K([γGlu-C18 diacid])KCNTATCATQRLANFL[Aib]HSSGNFGPILPPTNVGSNTY-NH2; disulfide 3-8; N-terminus assumed)
2160 pM	12	173 pM	H-K([AEEA-AEEA-γGlu-C18 diacid])GGGKCNTATCATQRLANFLVHSSNNFGPILPPTNVGSNTY-NH2 (disulfide 6-11) [Peptide 7]
16900 pM	29	588 pM	CC[C@H](C)[C@H](NC(=O)[C@@H]1CCCN1C(=O)CNC(=O)[C@H](Cc1ccccc1)NC(=O)[C@H](CC(N)=O)NC(=O)C(C)(C)NC(=O)[C@H](CO)NC(=O)[C@H](CO)NC(=O)[C@H](Cc1c[nH]cn1)NC(=O)[C@H](CCCNC(=N)N)NC(=O)[C@H](CC(C)C)NC(=O)[C@H](Cc1ccccc1)NC(=O)[C@H](CC(N)=O)NC(=O)[C@H](C)NC(=O)[C@H](CC(C)C)NC(=O)[C@H](CCCNC(=N)N)NC(=O)[C@H](CCC(N)=O)NC(=O)[C@@H](NC(=O)[C@H](C)NC(=O)[C@@H]1CSSC[C@H](NC(=O)[C@@H](N)CCCCNC(=O)COCCOCCNC(=O)COCCOCCNC(=O)CC[C@H](NC(=O)CCCCCCCCCCCCCCCCC(=O)O)C(=O)O)C(=O)N[C@@H](CC(N)=O)C(=O)N[C@@H]([C@@H](C)O)C(=O)N[C@@H](C)C(=O)N[C@@H]([C@@H](C)O)C(=O)N1)[C@@H](C)O)C(=O)N[C@@H](CC(C)C)C(=O)N1CCC[C@H]1C(=O)N1CCC[C@H]1C(=O)N[C@H](C(=O)N[C@@H](CCC(=O)O)C(=O)N[C@H](C(=O)NCC(=O)N[C@@H](CO)C(=O)N[C@@H](CC(N)=O)C(=O)N[C@H](C(=O)N[C@@H](Cc1ccc(O)cc1)C(N)=O)[C@@H](C)O)C(C)C)[C@@H](C)O [Peptide 45, K(O2Oc-O2Oc-γE-C18diacid)[CNTATC]ATQRLANFLRHSS(Aib)NFGPILPPTEVGSNTY-amide] (H-K([AEEA-AEEA-γGlu-C18 diacid])CNTATCATQRLANFLRHSS[Aib]NFGPILPPTEVGSNTY-NH2; disulfide 2-7; N-terminus assumed)
4570 pM	13	356 pM	CC[C@H](C)[C@H](NC(=O)[C@@H]1CCCN1C(=O)CNC(=O)[C@H](Cc1ccccc1)NC(=O)[C@H](CC(N)=O)NC(=O)C(C)(C)NC(=O)[C@H](CO)NC(=O)[C@H](CO)NC(=O)[C@H](Cc1c[nH]cn1)NC(=O)[C@@H](NC(=O)[C@H](CC(C)C)NC(=O)[C@H](Cc1ccccc1)NC(=O)[C@H](CC(N)=O)NC(=O)[C@H](C)NC(=O)[C@H](CC(C)C)NC(=O)[C@H](CCCNC(=N)N)NC(=O)[C@H](CCC(N)=O)NC(=O)[C@@H](NC(=O)[C@H](C)NC(=O)[C@@H]1CSSC[C@H](NC(=O)[C@H](CCCCN)NC(=O)[C@@H](N)CCCCNC(=O)CC[C@H](NC(=O)CC[C@H](NC(=O)CCCCCCCCCCCCCCCCC(=O)O)C(=O)O)C(=O)O)C(=O)N[C@@H](CC(N)=O)C(=O)N[C@@H]([C@@H](C)O)C(=O)N[C@@H](C)C(=O)N[C@@H]([C@@H](C)O)C(=O)N1)[C@@H](C)O)C(C)C)C(=O)N[C@@H](CC(C)C)C(=O)N1CCC[C@H]1C(=O)N1CCC[C@H]1C(=O)N[C@H](C(=O)N[C@@H](CC(N)=O)C(=O)N[C@H](C(=O)NCC(=O)N[C@@H](CO)C(=O)N[C@@H](CCCNC(=N)N)C(=O)N[C@H](C(=O)N[C@@H](Cc1ccc(O)cc1)C(N)=O)[C@@H](C)O)C(C)C)[C@@H](C)O [Peptide 74, K(γE-γE-C18diacid)K[CNTATC]ATQRLANFLVHSS(Aib)NFGPILPPTNVGSRTY-amide] (H-K([γGlu-γGlu-C18 diacid])KCNTATCATQRLANFLVHSS[Aib]NFGPILPPTNVGSRTY-NH2; disulfide 3-8; N-terminus assumed)
15600 pM	15	1060 pM	CC[C@H](C)[C@H](NC(=O)[C@@H]1CCCN1C(=O)CNC(=O)[C@H](Cc1ccccc1)NC(=O)[C@H](CC(N)=O)NC(=O)C(C)(C)NC(=O)[C@H](CO)NC(=O)[C@H](CO)NC(=O)[C@H](Cc1c[nH]cn1)NC(=O)[C@H](CCCNC(=N)N)NC(=O)[C@H](CC(C)C)NC(=O)[C@H](Cc1ccccc1)NC(=O)[C@H](CC(N)=O)NC(=O)[C@H](C)NC(=O)[C@H](CC(C)C)NC(=O)[C@H](CCCNC(=N)N)NC(=O)[C@H](CCC(N)=O)NC(=O)[C@@H](NC(=O)[C@H](C)NC(=O)[C@@H]1CSSC[C@H](NC(=O)[C@@H](N)CCCCNC(=O)CC[C@H](NC(=O)CC[C@H](NC(=O)CCCCCCCCCCCCCCCCC(=O)O)C(=O)O)C(=O)O)C(=O)N[C@@H](CC(N)=O)C(=O)N[C@@H]([C@@H](C)O)C(=O)N[C@@H](C)C(=O)N[C@@H]([C@@H](C)O)C(=O)N1)[C@@H](C)O)C(=O)N[C@@H](CC(C)C)C(=O)N1CCC[C@H]1C(=O)N1CCC[C@H]1C(=O)N[C@H](C(=O)NC(C)(C)C(=O)N[C@H](C(=O)NCC(=O)N[C@@H](CO)C(=O)N[C@@H](CC(N)=O)C(=O)N[C@H](C(=O)N[C@@H](Cc1ccc(O)cc1)C(N)=O)[C@@H](C)O)C(C)C)[C@@H](C)O [Peptide 90, K(γE-γE-C18diacid)[CNTATC]ATQRLANFLRHSS(Aib)NFGPILPPT(Aib)VGSNTY-amide] (H-K([γGlu-γGlu-C18 diacid])CNTATCATQRLANFLRHSS[Aib]NFGPILPPT[Aib]VGSNTY-NH2; disulfide 2-7; N-terminus assumed)
654 pM	7	99 pM	CC[C@@H](C)[C@@H](NC(=O)[C@@H]1CCCN1C(=O)CNC(=O)[C@H](Cc1ccccc1)NC(=O)[C@H](CC(N)=O)NC(=O)C(C)(C)NC(=O)[C@H](CO)NC(=O)[C@H](CO)NC(=O)[C@H](Cc1c[nH]cn1)NC(=O)[C@@H](NC(=O)[C@H](CC(C)C)NC(=O)[C@H](Cc1ccccc1)NC(=O)[C@H](CC(N)=O)NC(=O)[C@H](C)NC(=O)[C@H](CC(C)C)NC(=O)[C@H](CCCNC(=N)N)NC(=O)[C@H](CCC(N)=O)NC(=O)[C@@H](NC(=O)[C@H](C)NC(=O)[C@@H]1CSSC[C@H](NC(=O)[C@@H](N)CCCCNC(=O)CC[C@H](NC(=O)CCCCCCCCCCCCCCCCC(=O)O)C(=O)O)C(=O)N[C@@H](CC(N)=O)C(=O)N[C@@H]([C@@H](C)O)C(=O)N[C@@H](C)C(=O)N[C@@H]([C@@H](C)O)C(=O)N1)[C@@H](C)O)C(C)C)C(=O)N[C@@H](CC(C)C)C(=O)N1CCC[C@H]1C(=O)N1CCC[C@H]1C(=O)N[C@H](C(=O)N[C@@H](CC(N)=O)C(=O)N[C@H](C(=O)NCC(=O)N[C@@H](CO)C(=O)N[C@@H](CC(N)=O)C(=O)N[C@H](C(=O)N[C@@H](Cc1ccc(O)cc1)C(N)=O)[C@@H](C)O)C(C)C)[C@@H](C)O [Peptide 61, K(γE-C18diacid)[CNTATC]ATQRLANFLVHSS(Aib)NFGP(dl)LPPTNVGSNTY-amide] (H-K([γGlu-C18 diacid])CNTATCATQRLANFLVHSS[Aib]NFGP[dI]LPPTNVGSNTY-NH2; disulfide 2-7; N-terminus assumed)
